# Laboratory results from patent US20090304763A1, “Insect Attractant Composition” (priority 2006, published 2009).
# What was measured:
# [1] = surface energy of water with added acetone; assay type: physicochemical; details: 5% addition of acetone to water; water alone 73 dynes/cm
# Source text: While the C3-C12 ketones used in the composition are insufficient by themselves to act as an insect attractant; they provide other valuable properties to the composition. In particular, small-chain ketones have the ability to act as surface-active agents and thus provide the composition with a more consistent droplet diameter and a lower surface energy when the liquid composition is released. For instance, a 5% addition of acetone to water can reduce water surface energy from 73 dynes/cm to 56 dynes/cm. While not wishing to be bound by this theory, it is believed that producing a composition with a consistent and smaller diameter size provides a better presentation to the antennae of the flying insects.
# [2] = test system: mosquitoes; test: test comparing acetone alone versus composition: share of available mosquitoes lured; assay type: in vivo; details: one test; acetone alone versus composition containing acetone, lactic acid and the fatty acid
compound,measurement,setting,value
"CC(C)=O [acetone alone, acetone]",water surface energy,[1],56 dynes/cm
same,average of all available mosquitoes lured,[2],6.7%
